Data: US10947188B2, “Small molecule ferroptosis inducers” (THE TRUSTEES OF COLUMBIA UNIVERSITY IN THE CITY OF NEW YORK, priority 2016, dated 2021)

System: BJeLR
Assay: Modulatory profiling: Alamar Blue viability, lethal compound cotreated with death modulator (EC50, AUC); for AUC, modulator BJ.3MA: reference of the scale not given here; for AUC, modulator BJ.ALLN: reference of the scale not given here; for AUC, modulator BJ.Boc D: reference of the scale not given here; for AUC, modulator BJ.CHX: reference of the scale not given here; for AUC, modulator BJ.Co2+: reference of the scale not given here; for AUC, modulator BJ.DPQ: reference of the scale not given here; for AUC, modulator BJ.Gd3+: reference of the scale not given here; for AUC, modulator BJ.LNAME: reference of the scale not given here; for AUC, modulator BJ.NAD+: reference of the scale not given here; for AUC, modulator BJ.NMMA: reference of the scale not given here; for AUC, modulator BJ.Nec-1: reference of the scale not given here; for AUC, modulator BJ.Pepstatin: reference of the scale not given here; for AUC, modulator BJ.TLCK: reference of the scale not given here
Format: cell-based, human
Design: AUC, modulator BJ.Gd3+ / AUC, modulator BJ.LNAME / AUC, modulator BJ.Lmin / AUC, modulator BJ.3MA / AUC, modulator BJ.ALLN / AUC, modulator BJ.Boc D / AUC, modulator BJ.CHX / AUC, modulator BJ.Co2+ / AUC, modulator BJ.Nec-1 / AUC, modulator BJ.Pepstatin / AUC, modulator BJ.TLCK / AUC, modulator BJ.atoc / AUC, modulator BJ.trolox / AUC, modulator BJ.zVAD: unit not given beside the values
Conditions: BJeLR cells, modulatory profile value (AUC); for AUC, modulator BJ.3MA: lethal compound cotreated with modulator 3MA; for AUC, modulator BJ.ALLN: lethal compound cotreated with modulator ALLN; for AUC, modulator BJ.Boc D: lethal compound cotreated with modulator Boc D; for AUC, modulator BJ.CHX: lethal compound cotreated with modulator CHX; for AUC, modulator BJ.Co2+: lethal compound cotreated with modulator Co2+; for AUC, modulator BJ.DPQ: lethal compound cotreated with modulator DPQ; for AUC, modulator BJ.Gd3+: lethal compound cotreated with modulator Gd3+; for AUC, modulator BJ.LNAME: lethal compound cotreated with modulator LNAME; for AUC, modulator BJ.Lmin/NAD+: lethal compound cotreated with modulator Lmin/NAD+; for AUC, modulator BJ.Lmin: lethal compound cotreated with modulator Lmin; for AUC, modulator BJ.NAD+: lethal compound cotreated with modulator NAD+; for AUC, modulator BJ.NMMA: lethal compound cotreated with modulator NMMA; for AUC, modulator BJ.Nec-1: lethal compound cotreated with modulator Nec-1; for AUC, modulator BJ.Pepstatin: lethal compound cotreated with modulator Pepstatin; for AUC, modulator BJ.TLCK: lethal compound cotreated with modulator TLCK; for AUC, modulator BJ.atoc: lethal compound cotreated with modulator atoc; for AUC, modulator BJ.trolox: lethal compound cotreated with modulator trolox; for AUC, modulator BJ.zVAD: lethal compound cotreated with modulator zVAD

| SMILES | AUC, modulator BJ.3MA | AUC, modulator BJ.ALLN | AUC, modulator BJ.Boc D | AUC, modulator BJ.CHX | AUC, modulator BJ.Co2+ | AUC, modulator BJ.DPQ | AUC, modulator BJ.Gd3+ | AUC, modulator BJ.LNAME | AUC, modulator BJ.Lmin/NAD+ | AUC, modulator BJ.Lmin | AUC, modulator BJ.NAD+ | AUC, modulator BJ.NMMA | AUC, modulator BJ.Nec-1 | AUC, modulator BJ.Pepstatin | AUC, modulator BJ.TLCK | AUC, modulator BJ.atoc | AUC, modulator BJ.trolox | AUC, modulator BJ.zVAD |
| --- | --- | --- | --- | --- | --- | --- | --- | --- | --- | --- | --- | --- | --- | --- | --- | --- | --- | --- |
| CC(C)C[C@H](NC(=O)[C@H](Cc1ccccc1)NC(=O)c1cnccn1)B(O)O [Bortezomib] | 0.001928 | −0.1031 | 0.03032 | 0.2984 | 0.2379 | −0.007392 | −0.03227 | −0.008649 | 0.1491 | 0.09993 | 0.05175 | −0.0002968 | 0.002293 | 0.000698 | 0.07108 | 0.01647 | 0.01237 | 0.005086 |
| CC1CC(C)(C)Nc2ccc(OC(=O)c3ccco3)cc21 (stereo not drawn) [CIL4] | 0.08316 | −0.003083 | −0.01828 | −0.009993 | −0.1747 | −0.003969 | 0.05533 | −0.01288 | 0.08674 | −0.002867 | 0.02731 | −0.01566 | 0.1015 | 0.08231 | 0.06929 | 0.004307 | 0.008406 | 0.01242 |
| CN(C)CC(O)Cn1c2ccc(Cl)cc2c2cc(Cl)ccc21 (stereo not drawn) [CIL5] | 0.08524 | −0.1163 | −0.07609 | −0.0324 | 0.04705 | 0.002876 | 0.01146 | −0.009787 | −0.01738 | −0.03698 | 2.99E−05 | −0.0271 | 0.03195 | 0.06042 | −0.02603 | −0.00271 | 0.0183 | −0.02054 |
| O=C1c2ccccc2-c2onc3ccc(Oc4ccccc4)c1c23 [CIL6] | 0.1191 | −0.0496 | −0.05247 | 0.1353 | 0.06961 | 0.01365 | 0.006848 | −0.02637 | −0.0638 | −0.03874 | 0.02657 | 0.006287 | 0.01237 | 0.03711 | −0.01536 | 0.01482 | −0.006777 | −0.003192 |
| OCCNCC(O)Cn1c2ccc(Br)cc2c2cc(Br)ccc21 (stereo not drawn) [CIL7] | 0.09188 | −0.02876 | −0.04946 | −0.01056 | 0.09999 | 0.06721 | −0.01897 | −0.03182 | 0.01771 | 0.01256 | 0.009046 | −0.01533 | 0.02534 | 0.06231 | −0.02373 | 0.0008495 | 0.0424 | −0.05834 |
| CC(C)(C)C1CCc2c(sc(NC(=O)CN3CCNCC3)c2C(N)=O)C1 (stereo not drawn) [CIL10] | 0.134 | −0.01713 | −0.05212 | −0.01805 | 0.1142 | −0.02695 | 0.007922 | 0.01363 | −0.01396 | −0.02341 | −0.001182 | 0.006192 | 0.07272 | 0.001044 | −0.05831 | 0.0467 | 0.05527 | −0.007333 |
| Cc1cccnc1Nc1nc(-c2ccccn2)cs1 [CIL13] | 0.09083 | −0.03933 | −0.02989 | −0.1264 | 0.5287 | 0.007392 | 0.04263 | 0.01544 | −0.05456 | −0.03412 | 0.01378 | −0.03177 | 0.04738 | 0.03784 | 0.3412 | −0.005646 | −0.006649 | −0.004568 |
| CCCS(=O)(=O)c1nnnn1-c1cccc(OC)c1 [CIL15] | 0.02761 | −0.06757 | −0.05321 | 0.1287 | 0.0961 | −0.01238 | 0.02535 | −0.02453 | −0.01164 | −0.0004619 | 0.01287 | −0.03623 | 0.02391 | 0.0256 | −0.005629 | −0.01149 | −0.01026 | 0.01243 |
| COc1cccc(-n2nnnc2S(C)(=O)=O)c1 [CIL16] | 0.05064 | −0.03491 | −0.04692 | 0.01221 | 0.07207 | −0.01732 | −0.02506 | −0.01278 | −0.05229 | −0.02238 | −0.02177 | −0.01938 | 0.06903 | 0.02481 | −0.02516 | −0.03351 | 0.003689 | −0.006166 |
| C[S+]([O-])c1nc(-c2ccc(Br)cc2)cc(-c2ccccc2)c1C#N (stereo not drawn) [CIL17] | 0.07927 | −0.07478 | −0.03116 | −0.0462 | −0.04764 | 0.004679 | −0.04 | −0.008054 | −0.03209 | −0.02464 | −0.01632 | −0.01688 | 0.02959 | 0.03912 | −0.07864 | 0.006451 | −0.001174 | −0.02313 |
| CCCCNc1cc(C)nc(NCc2ccccc2)n1 [CIL18] | 0.0654 | −0.04507 | −0.01841 | −0.01582 | 0.08943 | −0.01318 | −0.01659 | −0.01628 | −0.0502 | −0.05505 | 0.00749 | −0.02371 | 0.0226 | 0.04724 | −0.03824 | −0.0004228 | 0.0395 | −0.005402 |
| O=c1c(N2CCCC2)c(Cl)cnn1-c1ccccc1 [CIL20] | 0.055 | −0.09098 | −0.06373 | −0.009677 | 0.04763 | −0.02696 | 0.04266 | −0.001747 | −0.03734 | −0.02603 | 0.03043 | −0.01046 | 0.0115 | −0.002516 | −0.00743 | −0.005113 | 0.02308 | −0.04036 |
| Cc1cccc(-n2ncc(Cl)c(Cl)c2=O)c1 [CIL22] | −0.04329 | −0.03232 | −0.0406 | 0.1136 | 0.07615 | 0.005752 | 0.005899 | 0.0123 | 0.07278 | 0.002645 | −0.005902 | −0.007412 | −0.01633 | 0.02724 | −0.01321 | 0.01015 | 0.0184 | 0.03093 |
| COc1nn(-c2ccccc2)c(=O)c(Cl)c1Cl [CIL23] | −0.01613 | −0.04561 | −0.01959 | −0.02303 | −0.01594 | 0.004379 | 0.03265 | −0.02129 | 0.004125 | −0.01617 | 0.005104 | −0.01242 | 0.03269 | −0.001663 | −0.007806 | 0.002315 | −0.02152 | 0.04691 |
